Earlier results, collected in patent US8673972B2, “Human papilloma virus as predictor of cancer prognosis” (Foundation Medicine, Inc., priority 2012, dated 2014).

Tests used:
Settings in all cases: stated in words only
CDK9 = CDK9 (Homo sapiens, UniProt P50750)
CDK2 = CDK2 (Homo sapiens, UniProt P24941)
CDK1 = CDK1 (Homo sapiens, UniProt P06493)
CDK4 = CDK4 (Homo sapiens, UniProt P11802)
CDK7 = CDK7 (Homo sapiens, UniProt P50613)
Sequence of CDK7 (P50613 whole entry): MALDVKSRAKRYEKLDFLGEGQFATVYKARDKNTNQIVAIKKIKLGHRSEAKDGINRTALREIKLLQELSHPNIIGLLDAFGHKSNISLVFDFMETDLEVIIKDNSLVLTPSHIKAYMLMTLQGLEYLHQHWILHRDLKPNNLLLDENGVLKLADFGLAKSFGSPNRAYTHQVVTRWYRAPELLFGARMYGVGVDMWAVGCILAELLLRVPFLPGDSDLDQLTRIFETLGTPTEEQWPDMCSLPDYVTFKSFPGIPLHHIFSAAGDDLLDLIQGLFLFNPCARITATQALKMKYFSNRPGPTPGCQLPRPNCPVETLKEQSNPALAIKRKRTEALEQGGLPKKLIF
Sequence of CDK7 (P51946 whole entry partner): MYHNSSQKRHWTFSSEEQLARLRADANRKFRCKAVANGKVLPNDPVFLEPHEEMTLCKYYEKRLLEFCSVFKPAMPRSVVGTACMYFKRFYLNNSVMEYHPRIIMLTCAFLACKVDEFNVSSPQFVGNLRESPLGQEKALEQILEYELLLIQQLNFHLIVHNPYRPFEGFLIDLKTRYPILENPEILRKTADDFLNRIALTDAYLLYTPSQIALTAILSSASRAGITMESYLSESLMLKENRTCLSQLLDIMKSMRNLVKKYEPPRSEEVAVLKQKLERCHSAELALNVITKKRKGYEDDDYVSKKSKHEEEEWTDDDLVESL
Sequence of CDK7 (P51948 whole entry partner): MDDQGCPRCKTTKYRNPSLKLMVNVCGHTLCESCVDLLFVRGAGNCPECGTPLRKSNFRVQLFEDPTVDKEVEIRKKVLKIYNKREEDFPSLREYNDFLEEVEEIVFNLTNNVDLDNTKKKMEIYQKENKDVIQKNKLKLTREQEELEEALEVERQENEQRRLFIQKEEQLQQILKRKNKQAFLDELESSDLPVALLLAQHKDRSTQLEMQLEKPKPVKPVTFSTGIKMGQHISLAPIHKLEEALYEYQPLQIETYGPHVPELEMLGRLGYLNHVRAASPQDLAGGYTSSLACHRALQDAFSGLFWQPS

Sequence of CDK1 (P06493 whole entry): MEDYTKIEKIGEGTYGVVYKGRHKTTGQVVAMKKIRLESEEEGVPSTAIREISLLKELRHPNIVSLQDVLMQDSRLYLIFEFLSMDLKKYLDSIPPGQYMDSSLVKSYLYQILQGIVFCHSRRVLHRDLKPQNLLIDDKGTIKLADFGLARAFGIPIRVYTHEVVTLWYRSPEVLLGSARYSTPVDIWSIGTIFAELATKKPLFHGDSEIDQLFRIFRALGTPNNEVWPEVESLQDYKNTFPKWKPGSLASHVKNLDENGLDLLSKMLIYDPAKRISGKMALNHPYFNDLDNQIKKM
Sequence of CDK1 (P14635 whole entry partner): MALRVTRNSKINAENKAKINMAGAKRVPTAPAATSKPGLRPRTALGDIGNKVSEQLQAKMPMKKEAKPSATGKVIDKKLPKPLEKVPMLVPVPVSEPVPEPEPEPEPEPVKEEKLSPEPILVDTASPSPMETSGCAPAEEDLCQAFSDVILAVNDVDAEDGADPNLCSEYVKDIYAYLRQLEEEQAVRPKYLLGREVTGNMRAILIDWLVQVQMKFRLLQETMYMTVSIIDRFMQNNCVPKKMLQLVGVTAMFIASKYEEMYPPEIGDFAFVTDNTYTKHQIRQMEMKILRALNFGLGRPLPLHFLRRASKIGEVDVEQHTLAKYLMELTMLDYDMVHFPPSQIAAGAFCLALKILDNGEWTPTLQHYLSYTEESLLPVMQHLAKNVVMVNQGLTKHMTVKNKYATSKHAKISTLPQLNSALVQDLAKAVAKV
Sequence of CDK9 (P50750 whole entry): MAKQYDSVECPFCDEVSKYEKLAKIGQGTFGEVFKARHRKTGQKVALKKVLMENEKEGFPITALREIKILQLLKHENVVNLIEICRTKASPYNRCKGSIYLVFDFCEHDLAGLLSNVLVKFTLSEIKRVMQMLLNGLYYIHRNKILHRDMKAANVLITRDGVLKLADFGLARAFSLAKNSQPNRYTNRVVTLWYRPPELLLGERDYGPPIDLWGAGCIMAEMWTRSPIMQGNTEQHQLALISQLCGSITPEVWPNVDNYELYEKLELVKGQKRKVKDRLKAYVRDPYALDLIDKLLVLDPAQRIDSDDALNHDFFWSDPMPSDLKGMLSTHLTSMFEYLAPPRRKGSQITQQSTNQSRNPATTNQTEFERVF
Sequence of CDK9 (O60563 whole entry partner): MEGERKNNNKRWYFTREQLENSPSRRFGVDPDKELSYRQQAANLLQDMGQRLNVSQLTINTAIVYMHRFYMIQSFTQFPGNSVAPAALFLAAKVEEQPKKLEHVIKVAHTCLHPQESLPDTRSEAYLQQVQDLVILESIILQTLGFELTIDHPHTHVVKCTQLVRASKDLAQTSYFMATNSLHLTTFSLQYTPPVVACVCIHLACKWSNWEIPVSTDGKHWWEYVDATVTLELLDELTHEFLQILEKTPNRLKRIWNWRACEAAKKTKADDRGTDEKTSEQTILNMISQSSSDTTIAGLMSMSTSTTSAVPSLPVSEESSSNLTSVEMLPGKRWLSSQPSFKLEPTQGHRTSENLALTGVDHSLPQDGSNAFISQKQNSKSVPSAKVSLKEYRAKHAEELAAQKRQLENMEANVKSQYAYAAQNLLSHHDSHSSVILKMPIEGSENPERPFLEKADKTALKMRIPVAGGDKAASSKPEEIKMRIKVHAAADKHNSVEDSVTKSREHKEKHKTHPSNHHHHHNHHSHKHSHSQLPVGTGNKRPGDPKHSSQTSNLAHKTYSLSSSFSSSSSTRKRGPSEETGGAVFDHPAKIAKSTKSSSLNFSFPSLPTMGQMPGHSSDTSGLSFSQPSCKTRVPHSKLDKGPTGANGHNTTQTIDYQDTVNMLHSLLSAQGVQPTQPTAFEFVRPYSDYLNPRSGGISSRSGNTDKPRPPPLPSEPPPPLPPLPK
Sequence of CDK4 (P11802 whole entry): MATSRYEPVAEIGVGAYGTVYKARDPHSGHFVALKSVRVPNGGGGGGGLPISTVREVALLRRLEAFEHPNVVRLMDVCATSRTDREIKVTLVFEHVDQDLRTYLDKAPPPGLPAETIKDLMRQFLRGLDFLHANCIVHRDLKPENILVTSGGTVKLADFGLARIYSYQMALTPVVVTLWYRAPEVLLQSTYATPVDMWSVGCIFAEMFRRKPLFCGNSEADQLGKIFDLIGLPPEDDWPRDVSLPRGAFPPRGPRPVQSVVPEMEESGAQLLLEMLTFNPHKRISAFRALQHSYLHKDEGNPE
Sequence of CDK4 (P24385 whole entry partner): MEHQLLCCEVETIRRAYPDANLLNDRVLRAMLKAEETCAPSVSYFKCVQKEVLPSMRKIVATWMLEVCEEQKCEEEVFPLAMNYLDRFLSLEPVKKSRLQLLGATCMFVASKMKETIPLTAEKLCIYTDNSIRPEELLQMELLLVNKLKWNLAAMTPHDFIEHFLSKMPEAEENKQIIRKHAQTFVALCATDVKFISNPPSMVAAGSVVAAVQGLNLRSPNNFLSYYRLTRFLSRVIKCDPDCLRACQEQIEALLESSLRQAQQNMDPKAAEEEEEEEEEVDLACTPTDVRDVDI

CC1(C)/C(=C2/C(=O)Nc3ccc(S(N)(=O)=O)cc32)Nc2ccccc21 [ZK-304709, (Z)-3,3-dimethyl-2′-oxo-[2,3′-biindolinylidene]-5′-sulfonamide]
nanomolar range: IC50 CDK9, in words (CDK9) | IC50 CDK2, in words (CDK2) | IC50 CDK1, in words (CDK1) | IC50 CDK4, in words (CDK4) | IC50 CDK7, in words (CDK7)
